Measurements reported in article PMC7746742, “The novel rexinoid MSU-42011 is effective for the treatment of preclinical Kras-driven lung cancer” (Scientific Reports, 2020).

What was measured:
iNOS = iNOS inhibition assay (LPS-induced NO production, Griess reaction); format: cell-based, murine; conditions: Mus musculus; RAW264.7 cells, 0–1000 nM rexinoids, LPS 1 ng/ml 24 h, NO by Griess assay; mean ± SE of 3 experiments; read-out: iNOS suppression IC50
Procedure: To evaluate the anti-inflammatory effects of the novel rexinoids, we utilized the iNOS suppression assay. Inhibition of iNOS in vitro directly correlates with efficacy in our preclinical model of Kras-driven lung cancer. RAW264.7 macrophage-like cells were treated with 0–1 μM rexinoids and stimulated with 1 ng/mL lipopolysaccharide for 24 h, and then NO was measured in the media.
RAW264.7 cells were plated in 96-well plates (20,000 cells/well). After overnight attachment, cells were treated with twofold serial dilutions (0–1000 nM) of rexinoids. After a 20 min incubation at 37 °C, cells were stimulated with 1 ng/mL LPS for 24 h. NO production was measured in culture medium using the Griess reaction. IC50 values were calculated using GraphPad Prism 8.1.2 software for Windows using a log([nM drug concentration]) vs. response curve fit.

SREBP = SREBP mRNA expression assay in HepG2 cells (RT-PCR); format: cell-based, human; conditions: Homo sapiens, HepG2, 8 h, HepG2 cells, 300 nM rexinoids, 8 h, SREBP mRNA by RT-PCR; mean ± SD of 3 experiments; read-out: SREBP activation Fold induction vs. Control
Procedure: The goals of our structure–activity relationship (SAR) studies were to explore and discover new scaffolds that not only bind to RXR but also are able to independently modulate both iNOS and SREBP activity in accordance with a previously described screening paradigm. To characterize the effect of the novel rexinoids on SREBP elevation in vitro, HepG2 cells were treated with 300 nM rexinoids for 8 h and SREBP mRNA levels were measured by RT-PCR. SREBP expression ranged from no change to a 4.6-fold induction compared to the vehicle control when treated with the novel compounds. […] Analogs MSU- 41402, 41582, 41407, 41566, 41844, 41845, 42011, and 42166 induced an SREPB mRNA fold expression change of 1–1.5 normalized to a vehicle control, while bexarotene induced an mRNA fold expression change of > 2 (Table 1).
HepG2 were plated in 6-well plates (1 × 10^6 cells/well) and, after allowing the cells to attach overnight, were treated with 300 nM rexinoids and/or varying concentrations of T0901317 (TOCRIS # 2373), GSK 2033 (TOCRIS # 5694), HX 531 (TOCRIS # 3912) for 8 h. Total RNA was isolated with TRIzol (Invitrogen, Carlsbad, CA) and 2 µg RNA was used to synthesize cDNA using the SuperScript III reverse transcriptase kit (Invitrogen, Carlsbad, CA). Primers (IDT) for SREBP (F: 5′-GCCGGTTGATAGGCAGCTT-3′; R: 5′-GGTGAGTGGCGGAACCATT-3′) and GAPDH (F: 5′-[…]-3′; R: 5′-[…]-3′), the SYBR Green Supermix (Bio-rad Laboratories, Hercules, CA) and the QuantStudio 7 Flex Real-Time PCR system (95 °C for 20 s followed by 40 cycles of 95 °C for 15 s and 60 °C for 1 min were used to detect mRNA expression. Relative SREBP/GAPDH gene expression was calculated by the delta-delta Ct method. To evaluate protein expression by western blotting, HepG2 cells were plated as above and treated with 300 nM of rexinoids for 24 h. Cells were harvested and lysed in RIPA buffer (1 M Tris–Cl, 5 M NaCl, pH 7.4, 0.5 M EDTA, 25 mM sodium deoxycholate, 1% triton-X, 0.1% SDS, 0.0125% aprotinin) with protease inhibitors (1% PMSF/0.5% apoprotein/0.1%leupeptin). Protein concentration was measured using a BCA assay (Sigma-Aldrich). Proteins (10 µg/well) were separated in 10% SDS-PAGE gels and transferred to nitrocellulose membranes. Membranes were incubated with SREBP (Active Motif; 1:1000) and GAPDH (Santa Cruz Biotechnology; 1:8000) primary antibodies followed by anti-rabbit secondary antibodies conjugated to horseradish peroxidase (Cell Signaling). Signal was detected using the ECL Western Blotting Substrate (GE Healthcare), and protein levels quantified using ImageJ.

[1] = Steady state drug levels in plasma after 12 weeks on diet (HPLC-MS); format: in vivo, A/J mice; conditions: A/J, mouse, oral, 100 mg/kg diet for 12 weeks, LC-MS, n = 8, mean ± SE
Procedure: Blood was collected via cardiac puncture into 1 ml lithium heparin tubes (Greiner Bio-one). Blood was centrifuged at 5000 g for 5 min at 4 °C. Plasma was separated and frozen at − 80 °C until processed as described. Acetonitrile was added to precipitate plasma proteins. Samples were centrifuged at 14,000 g for 5 min, and the supernatant was filtered with a 0.2 µm syringe filter. Each sample was dried overnight and reconstituted in 200 µl of 50:50 methanol:water solution for analysis via HPLC. HPLC was performed on a Quatro Premier instrument with an Ascentis Express C18 column and an Acquity UPLC system. The mobile phase A consisted of 10 mM aq. ammonium acetate and the mobile phase B consisted of methanol. The following gradient was applied 99–5% A (0–4 min), 5% A (4–5.1 min), 5–99% A (5.1–6 min). The flow rate was 0.3 ml/minute, and bexarotene and MSU-42011 were detected at ~ 4.5 min. A standard curve was prepared by processing plasma from untreated animals and spiking the samples with 0.1–3 μM of the appropriate rexinoid then reconstituting the samples.

[2] = Mouse weights as a marker of drug toxicity; format: in vivo, A/J mice; conditions: rexinoids in diet; initial week 6, final week 20
Description: Mouse weights were monitored as a marker of drug toxicity (Supplemental Fig. 3). […] There were no significant differences in the average weights between groups of mice on single drugs.
Control Bexarotene 42011 C/P Bex + C/P 42011 + C/P
Initial weight Final weight
Supplemental Fig 3: Mouse weights. A/J mice were weighed weekly during the study. Values shown represent average mouse weights (n = 14-15/group) before treatment diets (initial weight at week 6) and at the end of the study (final weight at week 20). * p < 0.01 compared to control, # p < 0.01 compared to bexarotene, ! p < 0.05 compared to MSU-42011 (one-way ANOVA followed by Tukey HSD); ** p < 0.05, *** p < 0.01 (two-tailed t test).

A549 lung cancer cells = assay: MTT proliferation assay; format: cell-based, human; conditions: 0–1 μM rexinoids, 72 hr
Procedure: were treated with 0-1 μM rexinoids for 72 hr. Proliferation was measured using the MTT assay.
MTT Assay. A549 cells were plated in 96-well plates (2,000 cells/well). After overnight attachment, cells were treated with 2 fold dilutions (0-1000 nM rexinoids) for 72 hr. 50 μL 3-(4,5-dimethylthiazol-2-yl)-2,5-diphenyltetrazolium bromide (MTT; Sigma M2128) was added to each well, and cells were incubated at 37 °C for 4 hr. Media was removed and cells were lysed with developing solution (0.04 M HCl in isopropanol). Plates were read at 550 nm.
(also on this page, place not known: 110A549 Cell Proliferation (% DMSO Control) 37°C)

IC50 (iNOS): 0.143 ± 0.019 µM
concentration at 12 weeks [1]: 81.2 ± 14.9 nM
SMILES: C=C(c1ccc(C(=O)O)cc1)c1cc2c(cc1C)C(C)(C)CCC2(C)C [Bexarotene]
fold induction at 0.3 µM (SREBP): > 2
Mouse weights during the study [2]: gained weight as expected
Growth / proliferation of A549 lung cancer cells (A549 lung cancer cells): do not inhibit proliferation
